According to ChEMBL document CHEMBL1909046, “DrugMatrix in vitro pharmacology data”:

Key:
[1] = DRUGMATRIX: GABAA, Flunitrazepam, Central radioligand binding (ligand: [3H] Flunitrazepam); assay type: cell membranes, Rattus norvegicus, Wistar, Brain, Membrane; settings: Not Active = under 50% inhibition at 10 µM
[2] = biological target: Prostaglandin G/H synthase 1 (Homo sapiens, UniProt P23219); experiment: biochemical; assay type: tissue-based, Platelet; settings: platelet;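 also: inhibition of COX-1 enzyme activity, with arachidonic acid supplied as substrate; in other assays of this panel Not Active means under 50% inhibition at 10 µM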
[3] = biological target: cGMP-specific 3',5'-cyclic phosphodiesterase (Homo sapiens, UniProt O76074); experiment: DRUGMATRIX: Phosphodiesterase PDE5 enzyme inhibition (substrate: [3H]cGMP + cGMP); assay type: tissue-based, Platelet; settings: platelet; Not Active = under 50% inhibition at 10 µM
Glucocorticoid receptor = biological target: T1, Glucocorticoid receptor (Homo sapiens, UniProt P04150); settings: hela s3; also: in other assays of this panel Not Active means under 50% inhibition at 10 µM
T1 sequence (P04150 whole entry): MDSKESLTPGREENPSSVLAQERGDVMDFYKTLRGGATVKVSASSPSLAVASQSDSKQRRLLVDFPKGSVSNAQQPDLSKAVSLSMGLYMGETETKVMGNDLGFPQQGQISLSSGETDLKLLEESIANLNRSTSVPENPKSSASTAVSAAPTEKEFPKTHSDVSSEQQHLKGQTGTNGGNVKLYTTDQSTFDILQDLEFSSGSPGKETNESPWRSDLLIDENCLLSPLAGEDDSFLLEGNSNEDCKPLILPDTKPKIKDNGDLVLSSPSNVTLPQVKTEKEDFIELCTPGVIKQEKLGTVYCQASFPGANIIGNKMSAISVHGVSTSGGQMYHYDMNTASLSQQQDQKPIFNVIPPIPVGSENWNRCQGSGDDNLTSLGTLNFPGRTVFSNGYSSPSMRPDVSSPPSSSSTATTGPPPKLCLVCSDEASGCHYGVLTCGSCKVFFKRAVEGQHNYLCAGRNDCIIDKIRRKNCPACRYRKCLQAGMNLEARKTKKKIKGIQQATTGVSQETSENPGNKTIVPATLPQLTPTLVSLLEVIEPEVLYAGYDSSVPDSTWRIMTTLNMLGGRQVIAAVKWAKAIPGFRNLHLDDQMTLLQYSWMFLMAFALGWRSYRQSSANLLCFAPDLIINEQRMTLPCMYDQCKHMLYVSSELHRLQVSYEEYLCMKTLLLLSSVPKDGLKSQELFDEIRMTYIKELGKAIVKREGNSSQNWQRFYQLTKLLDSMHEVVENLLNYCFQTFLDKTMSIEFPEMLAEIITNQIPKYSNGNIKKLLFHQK

Glycine receptor = Glycine receptor (Rattus norvegicus, UniProt P22771+P24524+P07727+P20781); assay type: cell membranes, Wistar, Spinal cord, Membrane; also: in other assays of this panel Not Active means under 50% inhibition at 10 µM
[4] = DRUGMATRIX: Atrial Natriuretic Factor (ANF) radioligand binding (ligand: [125I] ANF (rat)); assay type: cell membranes, Cavia porcellus, Dunkin-Hartley, Adrenal gland, Membrane; settings: Not Active = under 50% inhibition at 10 µM
Cytochrome P450 2E1 = Cytochrome P450 2E1 (Homo sapiens, UniProt P05181); settings: bti-tn-5b1-4; also: in other assays of this panel Not Active means under 50% inhibition at 10 µM
[5] = biological target: T2, Cysteinyl leukotriene receptor 1 (Homo sapiens, UniProt Q9Y271); assay type: cell membranes, Membrane; settings: cho-k1; also: in other assays of this panel Not Active means under 50% inhibition at 10 µM
T2 sequence (Q9Y271 whole entry): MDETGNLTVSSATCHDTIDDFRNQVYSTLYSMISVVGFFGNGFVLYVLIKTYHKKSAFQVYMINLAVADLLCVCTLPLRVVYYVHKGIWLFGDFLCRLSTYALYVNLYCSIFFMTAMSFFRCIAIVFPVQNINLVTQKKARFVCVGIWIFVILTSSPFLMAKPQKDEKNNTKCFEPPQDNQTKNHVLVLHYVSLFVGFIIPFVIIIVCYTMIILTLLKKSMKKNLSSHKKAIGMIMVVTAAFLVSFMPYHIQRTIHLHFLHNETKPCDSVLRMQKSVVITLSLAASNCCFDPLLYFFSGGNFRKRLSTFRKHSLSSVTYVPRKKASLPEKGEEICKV

Sequence of Prostaglandin G/H synthase 1 (P23219 whole entry): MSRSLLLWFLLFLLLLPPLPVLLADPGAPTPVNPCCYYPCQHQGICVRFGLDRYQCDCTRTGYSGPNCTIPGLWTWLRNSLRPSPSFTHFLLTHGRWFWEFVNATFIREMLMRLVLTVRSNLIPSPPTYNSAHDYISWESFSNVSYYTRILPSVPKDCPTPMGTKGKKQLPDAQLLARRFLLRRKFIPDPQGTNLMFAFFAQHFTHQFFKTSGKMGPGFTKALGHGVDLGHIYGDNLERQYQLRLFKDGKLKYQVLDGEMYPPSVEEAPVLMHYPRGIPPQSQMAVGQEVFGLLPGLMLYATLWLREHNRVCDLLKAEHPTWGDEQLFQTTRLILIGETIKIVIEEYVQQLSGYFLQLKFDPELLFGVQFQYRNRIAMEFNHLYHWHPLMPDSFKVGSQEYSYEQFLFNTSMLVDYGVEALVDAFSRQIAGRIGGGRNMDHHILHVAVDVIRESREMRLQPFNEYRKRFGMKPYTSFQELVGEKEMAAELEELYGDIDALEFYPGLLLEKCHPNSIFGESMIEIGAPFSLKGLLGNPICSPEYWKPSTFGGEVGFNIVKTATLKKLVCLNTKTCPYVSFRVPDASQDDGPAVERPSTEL
Sequence of Cytochrome P450 2E1 (P05181 whole entry): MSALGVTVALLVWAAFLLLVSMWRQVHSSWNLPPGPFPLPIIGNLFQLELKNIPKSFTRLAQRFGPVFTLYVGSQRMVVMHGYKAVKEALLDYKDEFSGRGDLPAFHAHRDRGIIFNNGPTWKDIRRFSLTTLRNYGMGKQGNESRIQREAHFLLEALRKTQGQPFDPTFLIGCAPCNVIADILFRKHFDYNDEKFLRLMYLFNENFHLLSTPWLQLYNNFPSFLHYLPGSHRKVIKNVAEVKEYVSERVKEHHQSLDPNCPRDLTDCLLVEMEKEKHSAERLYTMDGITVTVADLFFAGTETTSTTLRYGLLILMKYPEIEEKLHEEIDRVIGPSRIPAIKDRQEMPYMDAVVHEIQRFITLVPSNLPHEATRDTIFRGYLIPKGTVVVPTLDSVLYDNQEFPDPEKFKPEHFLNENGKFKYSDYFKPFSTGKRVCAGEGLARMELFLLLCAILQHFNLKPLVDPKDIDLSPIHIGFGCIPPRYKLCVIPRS

C[C@@H]1O[C@@H](O[C@H]2C[C@@H](O)[C@]3(CO)[C@H]4[C@H](O)C[C@]5(C)[C@@H](C6=CC(=O)OC6)CC[C@]5(O)[C@@H]4CC[C@]3(O)C2)[C@H](O)[C@H](O)[C@H]1O [OUABAIN]
Not Active: IC50 [1] | Ki [1] | IC50 [2] | IC50 [3] | IC50 (Glucocorticoid receptor) | IC50 (Glycine receptor) | IC50 [4] | Ki [4] | IC50 (Cytochrome P450 2E1) | Ki (Cytochrome P450 2E1) | IC50 [5]

COc1ccnc(C[S+]([O-])c2nc3ccc(OC(F)F)cc3[nH]2)c1OC (stereo not given) [PANTOPRAZOLE]
Not Active: IC50 [1] | Ki [1] | IC50 [2] | IC50 [3] | IC50 (Glucocorticoid receptor) | IC50 (Glycine receptor) | IC50 [4] | Ki [4] | IC50 (Cytochrome P450 2E1) | Ki (Cytochrome P450 2E1) | IC50 [5]

N=C(N)c1ccc(OCCCCCOc2ccc(C(=N)N)cc2)cc1 [PENTAMIDINE]
Not Active: IC50 [1] | Ki [1] | IC50 [2] | IC50 [3] | IC50 (Glucocorticoid receptor) | IC50 (Glycine receptor) | IC50 [4] | Ki [4] | IC50 (Cytochrome P450 2E1) | Ki (Cytochrome P450 2E1) | IC50 [5]

NNCCc1ccccc1 [PHENELZINE]
Not Active: IC50 [1] | Ki [1] | IC50 [2] | IC50 [3] | IC50 (Glucocorticoid receptor) | IC50 (Glycine receptor) | IC50 [4] | Ki [4] | IC50 (Cytochrome P450 2E1) | Ki (Cytochrome P450 2E1) | IC50 [5]

CCc1ccc(CCOc2ccc(CC3SC(=O)NC3=O)cc2)nc1 (stereo not given) [PIOGLITAZONE]
Not Active: IC50 [1] | Ki [1] | IC50 [2] | IC50 [3] | IC50 (Glucocorticoid receptor) | IC50 (Glycine receptor) | IC50 [4] | Ki [4] | IC50 (Cytochrome P450 2E1) | Ki (Cytochrome P450 2E1) | IC50 [5]

CCCNC(C)C(=O)Nc1ccccc1C (stereo not given) [PRILOCAINE]
Not Active: IC50 [1] | Ki [1] | IC50 [2] | IC50 [3] | IC50 (Glucocorticoid receptor) | IC50 (Glycine receptor) | IC50 [4] | Ki [4] | IC50 (Cytochrome P450 2E1) | Ki (Cytochrome P450 2E1) | IC50 [5]

CCN(CC)CCCC(C)Nc1c2ccc(Cl)cc2nc2ccc(OC)cc12 (stereo not given) [QUINACRINE]
Not Active: IC50 [1] | Ki [1] | IC50 [2] | IC50 [3] | IC50 (Glucocorticoid receptor) | IC50 (Glycine receptor) | IC50 [4] | Ki [4] | IC50 (Cytochrome P450 2E1) | Ki (Cytochrome P450 2E1) | IC50 [5]

CC[C@]1(O)C[C@@H]2CN(CCc3c([nH]c4ccccc34)[C@@](C(=O)OC)(c3cc4c(cc3OC)N(C)[C@H]3[C@@](O)(C(N)=O)[C@H](O)[C@]5(CC)C=CCN6CC[C@]43[C@@H]65)C2)C1 [VINDESINE]
Not Active: IC50 [1] | Ki [1] | IC50 [2] | IC50 [3] | IC50 (Glucocorticoid receptor) | IC50 (Glycine receptor) | IC50 [4] | Ki [4] | IC50 (Cytochrome P450 2E1) | Ki (Cytochrome P450 2E1) | IC50 [5]

COBALTOUS CHLORIDE
Not Active: IC50 [1] | Ki [1] | IC50 [2] | Ki [2] | IC50 [3] | Ki [3] | IC50 (Glucocorticoid receptor) | Ki (Glucocorticoid receptor) | IC50 (Glycine receptor) | Ki (Glycine receptor) | IC50 [4] | Ki [4] | IC50 (Cytochrome P450 2E1) | Ki (Cytochrome P450 2E1) | IC50 [5] | Ki [5]

COLISTIN
Not Active: IC50 [1] | Ki [1] | IC50 [2] | Ki [2] | IC50 [3] | Ki [3] | IC50 (Glucocorticoid receptor) | Ki (Glucocorticoid receptor) | IC50 (Glycine receptor) | Ki (Glycine receptor) | IC50 [4] | Ki [4] | IC50 (Cytochrome P450 2E1) | Ki (Cytochrome P450 2E1) | IC50 [5] | Ki [5]
